Data: ChEMBL document CHEMBL1201862, “PubChem BioAssay data set” (2004)
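Where inhibition never reached the appropriate level, the endpoint shown equals the highest concentration tested. Otherwise, values were interpolated linearly from a five-concentration, 48-hour dose response in 96-well plates. GI50 = concentration required for 50% inhibition of growth.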 Calls of active or inactive are those of the source. Cut-off read from the data, not from the text of the source: active = GI50 up to about 1.1 µM and inactive = higher.

How the values were obtained:
Assay in all cases: inhibition of tumour cell growth, NCI panel, 48 h
UACC-62 = test system: UACC-62
TK-10 = test system: TK-10
OVCAR-3 = test system: OVCAR-3
OVCAR-4 = test system: OVCAR-4
SK-MEL-28 = test system: SK-MEL-28
HCT-15 = test system: HCT-15
HCT-116 = test system: HCT-116
LOX IMVI = test system: LOX IMVI
HCC 2998 = test system: HCC 2998
NCI-H522 = test system: NCI-H522
SK-MEL-2 = test system: SK-MEL-2
M14 = test system: M14
SF-295 = test system: SF-295
KM12 = test system: KM12
MOLT-4 = test system: MOLT-4
RPMI-8226 = test system: RPMI-8226
A498 = test system: A498
MDA-N = test system: MDA-N
DU-145 = test system: DU-145
MCF7 = test system: MCF7

Structure (SMILES) | GI50 (UACC-62) | GI50 (TK-10) | GI50 (OVCAR-3) | GI50 (OVCAR-4) | GI50 (SK-MEL-28) | GI50 (HCT-15) [µM] | GI50 (HCT-116) | GI50 (LOX IMVI) | GI50 (HCC 2998) | GI50 (NCI-H522) | GI50 (SK-MEL-2) | GI50 (M14) | GI50 (SF-295) | GI50 (KM12) | GI50 (MOLT-4) | GI50 (RPMI-8226) | GI50 (A498) | GI50 (MDA-N) | GI50 (DU-145) | GI50 (MCF7)
COc1ccc2c(CCNC(C)=O)c(C(C)=O)[nH]c2c1 | > 100 µM (inactive) | > 100 µM (inactive) | > 100 µM (inactive) | > 100 µM (inactive) | > 100 µM (inactive) | > 100 | > 100 µM (inactive) | > 100 µM (inactive) | > 100 µM (inactive) | > 100 µM (inactive) | > 100 µM (inactive) | > 100 µM (inactive) | > 100 µM (inactive) | > 100 µM (inactive) | > 100 µM (inactive) | > 100 µM (inactive) | > 100 µM (inactive) |  |  | 
COCc1nc2c(OC)c(-c3nc4ccc(N5CCN(C)CC5)nc4[nH]3)cc(OC)c2n1C | 20.7 µM (inactive) |  | 53.6 µM (inactive) | 34 µM (inactive) | 23.4 µM (inactive) | 40.9 | 41.3 µM (inactive) | 19.1 µM (inactive) | 14.4 µM (inactive) | 27.4 µM (inactive) | 22 µM (inactive) | 21.3 µM (inactive) | 32.1 µM (inactive) | 24 µM (inactive) | 16.4 µM (inactive) | 18.7 µM (inactive) |  | 37.7 µM (inactive) | 37.7 µM (inactive) | 
O=c1[nH]c(=S)c2cc3c(=S)[nH]c(=O)n(CCO)c3nc2n1CCO |  | > 100 µM (inactive) | > 100 µM (inactive) | > 100 µM (inactive) | > 100 µM (inactive) | > 100 | > 100 µM (inactive) | > 100 µM (inactive) | > 100 µM (inactive) | > 100 µM (inactive) | > 100 µM (inactive) | > 100 µM (inactive) | > 100 µM (inactive) | > 100 µM (inactive) | > 100 µM (inactive) | > 100 µM (inactive) | > 100 µM (inactive) | > 100 µM (inactive) |  | > 100 µM (inactive)
CCOC(=O)N1C(=O)C2C3C=CC(C2C1=O)C1C2C(=O)N(C(=O)OCC)C(=O)C2C31 (stereo not given) | > 100 µM (inactive) | > 100 µM (inactive) | > 100 µM (inactive) | > 100 µM (inactive) | > 100 µM (inactive) | > 47.2 | > 39.5 µM (inactive) | > 46.6 µM (inactive) | > 100 µM (inactive) | > 100 µM (inactive) | > 100 µM (inactive) | > 100 µM (inactive) | > 100 µM (inactive) | > 100 µM (inactive) | > 100 µM (inactive) | > 100 µM (inactive) | > 100 µM (inactive) |  |  | 
O=C1Nc2ccccc2/C1=N/NC(=O)c1ccccc1O | 36.1 µM (inactive) | 65.9 µM (inactive) | 85.3 µM (inactive) | 75.5 µM (inactive) | 60.5 µM (inactive) | 32.6 | 36.8 µM (inactive) | 48.4 µM (inactive) | 23 µM (inactive) | 39.7 µM (inactive) | 23 µM (inactive) | 50.1 µM (inactive) | 27.9 µM (inactive) | 33.7 µM (inactive) | 29 µM (inactive) | 56.5 µM (inactive) | 23.5 µM (inactive) |  |  | 
CN(CCN(C)C(=O)CCOS(C)(=O)=O)C(=O)CCOS(C)(=O)=O | 43.5 µM (inactive) | > 100 µM (inactive) | > 100 µM (inactive) | > 100 µM (inactive) | > 100 µM (inactive) | > 100 | > 100 µM (inactive) | > 100 µM (inactive) | > 100 µM (inactive) | > 100 µM (inactive) | > 100 µM (inactive) | > 100 µM (inactive) | > 100 µM (inactive) | > 100 µM (inactive) | 41 µM (inactive) | > 100 µM (inactive) | > 100 µM (inactive) |  |  | 
CSc1nc2[nH]c(=O)c(C)nc2c(=O)[nH]1 | > 100 µM (inactive) | > 100 µM (inactive) | > 100 µM (inactive) | > 100 µM (inactive) | > 100 µM (inactive) | > 100 | > 100 µM (inactive) | > 100 µM (inactive) | > 100 µM (inactive) | > 100 µM (inactive) | > 100 µM (inactive) | > 100 µM (inactive) | > 100 µM (inactive) | > 100 µM (inactive) | > 100 µM (inactive) | > 100 µM (inactive) | > 100 µM (inactive) |  |  | 
CC(=O)Nc1ccc(/N=N\c2c(O)c(S(=O)(=O)O)cc3cc(S(=O)(=O)O)ccc23)cc1 | > 100 µM (inactive) | > 100 µM (inactive) | > 100 µM (inactive) | > 100 µM (inactive) | > 100 µM (inactive) | > 100 | > 100 µM (inactive) |  |  | > 100 µM (inactive) | > 100 µM (inactive) | > 100 µM (inactive) | > 100 µM (inactive) | > 100 µM (inactive) |  | > 100 µM (inactive) |  | > 100 µM (inactive) | > 100 µM (inactive) | 
